Test results reported in publication PMC11882969 (Nature Communications, 2025).
“And” between values parts separate entries of the source, which are not always exact repeats. Equal values may be shown once.

How the values were obtained:
[1] = target: panel of 320 non-olfactory GPCRs (Homo sapiens, UniProt Q99677); type: cell-based
[2] = system: panel of 320 non-olfactory GPCRs; type: cell-based, human
[3] = target: panel of 320 non-olfactory GPCRs (Homo sapiens, UniProt Q9NYM4); type: cell-based
[4] = target: panel of 320 non-olfactory GPCRs (Homo sapiens, UniProt P49190); type: cell-based
[5] = target: panel of 320 non-olfactory GPCRs (Homo sapiens, UniProt P48039); type: cell-based
[6] = target: panel of 320 non-olfactory GPCRs (Homo sapiens, UniProt Q9NS75); type: cell-based
[7] = target: panel of 320 non-olfactory GPCRs (Homo sapiens, UniProt P46092); type: cell-based
[8] = target: panel of 320 non-olfactory GPCRs (Homo sapiens, UniProt Q99679); type: cell-based
[9] = target: panel of 320 non-olfactory GPCRs (Homo sapiens, UniProt Q5UAW9); type: cell-based
[10] = target: panel of 320 non-olfactory GPCRs (Homo sapiens, UniProt P50052); type: cell-based
[11] = target: panel of 320 non-olfactory GPCRs (Homo sapiens, UniProt P46091); type: cell-based
[12] = target: panel of 320 non-olfactory GPCRs (Homo sapiens, UniProt Q9NPC1); type: cell-based
[13] = target: panel of 320 non-olfactory GPCRs (Homo sapiens, UniProt P35346); type: cell-based
[14] = target: panel of 320 non-olfactory GPCRs (Homo sapiens, UniProt Q9BPV8); type: cell-based
[15] = target: panel of 320 non-olfactory GPCRs (Homo sapiens, UniProt Q6NV75); type: cell-based
[16] = target: panel of 320 non-olfactory GPCRs (Homo sapiens, UniProt P21453); type: cell-based
[17] = target: panel of 320 non-olfactory GPCRs (Homo sapiens, UniProt P34972); type: cell-based
[18] = target: panel of 320 non-olfactory GPCRs (Homo sapiens, UniProt Q9BXC1); type: cell-based
[19] = target: panel of 320 non-olfactory GPCRs (Homo sapiens, UniProt O43193); type: cell-based
[20] = target: panel of 320 non-olfactory GPCRs (Homo sapiens, UniProt Q14439); type: cell-based
[21] = target: panel of 320 non-olfactory GPCRs (Homo sapiens, UniProt O95800); type: cell-based
[22] = target: panel of 320 non-olfactory GPCRs (Homo sapiens, UniProt Q13585); type: cell-based
[23] = target: panel of 320 non-olfactory GPCRs (Homo sapiens, UniProt Q6U736); type: cell-based
[24] = target: panel of 320 non-olfactory GPCRs (Homo sapiens, UniProt Q9UNW8); type: cell-based
[25] = target: panel of 320 non-olfactory GPCRs (Homo sapiens, UniProt Q9Y653); type: cell-based
[26] = target: panel of 320 non-olfactory GPCRs (Homo sapiens, UniProt P25101); type: cell-based
[27] = target: panel of 320 non-olfactory GPCRs (Homo sapiens, UniProt Q16538); type: cell-based
[28] = target: panel of 320 non-olfactory GPCRs (Homo sapiens, UniProt P34969); type: cell-based
[29] = target: panel of 320 non-olfactory GPCRs (Homo sapiens, UniProt P21554); type: cell-based
[30] = target: panel of 320 non-olfactory GPCRs (Homo sapiens, UniProt P23945); type: cell-based
[31] = target: panel of 320 non-olfactory GPCRs (Homo sapiens, UniProt P30542); type: cell-based
[32] = target: panel of 320 non-olfactory GPCRs (Homo sapiens, UniProt Q92847); type: cell-based
[33] = target: panel of 320 non-olfactory GPCRs (Homo sapiens, UniProt Q15760); type: cell-based
[34] = target: panel of 320 non-olfactory GPCRs (Homo sapiens, UniProt P61073); type: cell-based
[35] = target: panel of 320 non-olfactory GPCRs (Homo sapiens, UniProt Q86SM5); type: cell-based
[36] = target: panel of 320 non-olfactory GPCRs (Homo sapiens, UniProt P13945); type: cell-based
[37] = target: panel of 320 non-olfactory GPCRs (Homo sapiens, UniProt Q9UJ42); type: cell-based
Chain of panel of 320 non-olfactory GPCRs (Homo sapiens, UniProt Q9UJ42) (Q9UJ42 whole entry): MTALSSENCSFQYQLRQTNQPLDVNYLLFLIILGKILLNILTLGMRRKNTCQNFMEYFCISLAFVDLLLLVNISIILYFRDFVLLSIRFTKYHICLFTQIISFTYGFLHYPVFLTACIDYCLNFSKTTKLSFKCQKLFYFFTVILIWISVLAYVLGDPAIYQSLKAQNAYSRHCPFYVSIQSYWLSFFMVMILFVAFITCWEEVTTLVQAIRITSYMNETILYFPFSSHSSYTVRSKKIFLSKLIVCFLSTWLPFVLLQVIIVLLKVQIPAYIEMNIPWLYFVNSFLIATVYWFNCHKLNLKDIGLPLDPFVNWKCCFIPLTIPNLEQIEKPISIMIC

Chain of panel of 320 non-olfactory GPCRs (Homo sapiens, UniProt Q5UAW9) (Q5UAW9 whole entry): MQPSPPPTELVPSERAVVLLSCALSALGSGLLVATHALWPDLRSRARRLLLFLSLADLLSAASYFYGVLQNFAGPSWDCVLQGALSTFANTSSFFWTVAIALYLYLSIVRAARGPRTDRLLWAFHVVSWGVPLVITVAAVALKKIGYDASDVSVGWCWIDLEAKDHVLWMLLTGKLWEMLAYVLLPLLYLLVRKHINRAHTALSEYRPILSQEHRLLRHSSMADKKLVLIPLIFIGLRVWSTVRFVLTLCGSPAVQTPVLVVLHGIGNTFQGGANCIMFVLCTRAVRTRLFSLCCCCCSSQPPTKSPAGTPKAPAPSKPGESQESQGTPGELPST
Chain of panel of 320 non-olfactory GPCRs (Homo sapiens, UniProt Q99679) (Q99679 whole entry): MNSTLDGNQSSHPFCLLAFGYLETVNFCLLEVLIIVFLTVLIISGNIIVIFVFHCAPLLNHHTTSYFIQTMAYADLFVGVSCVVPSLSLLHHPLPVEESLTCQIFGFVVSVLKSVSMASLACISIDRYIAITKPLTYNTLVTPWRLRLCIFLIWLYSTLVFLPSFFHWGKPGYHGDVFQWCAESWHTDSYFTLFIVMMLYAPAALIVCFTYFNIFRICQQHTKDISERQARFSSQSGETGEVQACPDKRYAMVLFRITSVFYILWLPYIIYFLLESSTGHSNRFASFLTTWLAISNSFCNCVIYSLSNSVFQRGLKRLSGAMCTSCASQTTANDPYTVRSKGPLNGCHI
Chain of panel of 320 non-olfactory GPCRs (Homo sapiens, UniProt Q6NV75) (Q6NV75 whole entry): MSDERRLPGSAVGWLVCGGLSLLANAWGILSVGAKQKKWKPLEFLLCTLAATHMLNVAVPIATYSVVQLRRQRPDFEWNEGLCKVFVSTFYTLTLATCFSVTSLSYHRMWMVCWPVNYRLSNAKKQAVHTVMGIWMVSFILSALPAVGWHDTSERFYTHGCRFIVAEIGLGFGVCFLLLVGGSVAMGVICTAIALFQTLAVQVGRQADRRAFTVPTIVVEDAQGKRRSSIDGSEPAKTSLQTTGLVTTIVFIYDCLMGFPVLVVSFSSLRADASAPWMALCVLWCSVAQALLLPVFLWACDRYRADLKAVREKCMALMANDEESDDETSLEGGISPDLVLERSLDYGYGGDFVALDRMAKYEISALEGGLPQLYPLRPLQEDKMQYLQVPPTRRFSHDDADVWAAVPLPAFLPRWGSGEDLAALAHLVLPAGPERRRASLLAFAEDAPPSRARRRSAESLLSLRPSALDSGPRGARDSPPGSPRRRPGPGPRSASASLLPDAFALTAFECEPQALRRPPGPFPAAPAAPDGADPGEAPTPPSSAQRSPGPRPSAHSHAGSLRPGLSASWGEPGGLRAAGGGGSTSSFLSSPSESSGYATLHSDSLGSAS
Chain of panel of 320 non-olfactory GPCRs (Homo sapiens, UniProt P23945) (P23945 18-695): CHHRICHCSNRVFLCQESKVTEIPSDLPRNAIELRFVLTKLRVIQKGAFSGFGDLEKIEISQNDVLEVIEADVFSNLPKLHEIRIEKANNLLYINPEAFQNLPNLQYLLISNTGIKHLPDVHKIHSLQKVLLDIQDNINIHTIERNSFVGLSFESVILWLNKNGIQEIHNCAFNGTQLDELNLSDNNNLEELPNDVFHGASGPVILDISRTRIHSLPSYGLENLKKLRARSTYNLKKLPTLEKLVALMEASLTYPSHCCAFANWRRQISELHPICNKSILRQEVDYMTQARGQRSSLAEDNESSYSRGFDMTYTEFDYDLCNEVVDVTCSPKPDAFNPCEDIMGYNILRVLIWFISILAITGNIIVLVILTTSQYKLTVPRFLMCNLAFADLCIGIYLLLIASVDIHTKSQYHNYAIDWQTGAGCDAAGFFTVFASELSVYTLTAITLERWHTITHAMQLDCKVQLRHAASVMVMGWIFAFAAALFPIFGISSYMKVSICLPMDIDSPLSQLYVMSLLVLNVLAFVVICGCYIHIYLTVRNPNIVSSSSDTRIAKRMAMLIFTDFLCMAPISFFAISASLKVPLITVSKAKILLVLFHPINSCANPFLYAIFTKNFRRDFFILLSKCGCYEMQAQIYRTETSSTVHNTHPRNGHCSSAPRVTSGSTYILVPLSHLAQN
Chain of panel of 320 non-olfactory GPCRs (Homo sapiens, UniProt P34972) (P34972 whole entry): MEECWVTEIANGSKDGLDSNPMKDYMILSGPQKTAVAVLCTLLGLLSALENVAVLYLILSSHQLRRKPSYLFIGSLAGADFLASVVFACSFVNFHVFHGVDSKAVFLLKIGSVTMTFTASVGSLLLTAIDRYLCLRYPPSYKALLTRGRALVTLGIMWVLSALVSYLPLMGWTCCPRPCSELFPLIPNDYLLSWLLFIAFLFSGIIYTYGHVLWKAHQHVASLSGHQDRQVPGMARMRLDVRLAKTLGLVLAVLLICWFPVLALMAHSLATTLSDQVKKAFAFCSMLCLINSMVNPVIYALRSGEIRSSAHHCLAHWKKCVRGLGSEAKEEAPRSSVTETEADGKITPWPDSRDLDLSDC
Chain of panel of 320 non-olfactory GPCRs (Homo sapiens, UniProt P50052) (P50052 whole entry): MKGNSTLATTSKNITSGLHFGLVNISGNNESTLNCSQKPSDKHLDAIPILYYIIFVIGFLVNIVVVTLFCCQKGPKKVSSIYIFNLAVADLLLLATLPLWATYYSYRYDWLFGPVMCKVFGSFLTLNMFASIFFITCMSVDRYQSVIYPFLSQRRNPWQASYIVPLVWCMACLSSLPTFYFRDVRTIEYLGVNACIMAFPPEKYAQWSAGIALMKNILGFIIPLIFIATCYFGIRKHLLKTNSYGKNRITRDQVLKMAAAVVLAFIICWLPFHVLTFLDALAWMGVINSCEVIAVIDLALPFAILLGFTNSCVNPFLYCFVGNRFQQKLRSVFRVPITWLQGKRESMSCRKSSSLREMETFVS
Chain of panel of 320 non-olfactory GPCRs (Homo sapiens, UniProt P13945) (P13945 whole entry): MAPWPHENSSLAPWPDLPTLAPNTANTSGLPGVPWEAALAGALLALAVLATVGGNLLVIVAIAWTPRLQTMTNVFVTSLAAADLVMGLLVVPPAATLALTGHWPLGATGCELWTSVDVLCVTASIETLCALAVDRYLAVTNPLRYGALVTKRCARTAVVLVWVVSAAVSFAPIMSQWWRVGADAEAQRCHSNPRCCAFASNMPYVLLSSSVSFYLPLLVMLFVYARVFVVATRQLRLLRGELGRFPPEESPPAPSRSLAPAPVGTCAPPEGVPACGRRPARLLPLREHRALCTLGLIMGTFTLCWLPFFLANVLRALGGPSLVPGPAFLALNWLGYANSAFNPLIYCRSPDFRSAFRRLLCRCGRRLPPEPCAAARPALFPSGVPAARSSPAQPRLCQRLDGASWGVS
Chain of panel of 320 non-olfactory GPCRs (Homo sapiens, UniProt P61073) (P61073 whole entry): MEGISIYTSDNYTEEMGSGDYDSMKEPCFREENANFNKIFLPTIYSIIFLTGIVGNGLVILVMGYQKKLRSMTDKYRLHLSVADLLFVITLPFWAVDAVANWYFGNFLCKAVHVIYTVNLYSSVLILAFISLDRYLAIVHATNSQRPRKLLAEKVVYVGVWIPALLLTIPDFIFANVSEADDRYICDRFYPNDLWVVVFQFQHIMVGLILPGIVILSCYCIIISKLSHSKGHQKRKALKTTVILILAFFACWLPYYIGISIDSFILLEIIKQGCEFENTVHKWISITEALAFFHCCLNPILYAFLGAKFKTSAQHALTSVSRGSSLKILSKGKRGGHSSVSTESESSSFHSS
Chain of panel of 320 non-olfactory GPCRs (Homo sapiens, UniProt P30542) (P30542 whole entry): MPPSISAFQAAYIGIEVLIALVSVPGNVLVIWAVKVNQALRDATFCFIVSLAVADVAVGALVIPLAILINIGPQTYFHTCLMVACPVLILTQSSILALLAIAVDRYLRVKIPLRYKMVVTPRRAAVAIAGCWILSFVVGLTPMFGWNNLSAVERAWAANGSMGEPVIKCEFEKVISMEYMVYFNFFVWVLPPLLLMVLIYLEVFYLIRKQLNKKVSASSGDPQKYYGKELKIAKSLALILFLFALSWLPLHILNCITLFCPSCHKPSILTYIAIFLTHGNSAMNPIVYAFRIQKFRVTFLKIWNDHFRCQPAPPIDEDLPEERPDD
Chain of panel of 320 non-olfactory GPCRs (Homo sapiens, UniProt Q9NS75) (Q9NS75 whole entry): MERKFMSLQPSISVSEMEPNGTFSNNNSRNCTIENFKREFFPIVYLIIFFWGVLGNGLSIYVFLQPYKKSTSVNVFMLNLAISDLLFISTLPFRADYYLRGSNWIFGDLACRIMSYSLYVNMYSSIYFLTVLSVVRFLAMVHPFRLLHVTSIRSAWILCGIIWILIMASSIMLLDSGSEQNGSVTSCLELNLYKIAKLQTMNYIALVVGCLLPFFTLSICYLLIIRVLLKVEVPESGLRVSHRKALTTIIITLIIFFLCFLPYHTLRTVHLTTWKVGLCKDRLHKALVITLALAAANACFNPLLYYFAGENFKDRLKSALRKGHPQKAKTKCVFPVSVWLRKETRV
Chain of panel of 320 non-olfactory GPCRs (Homo sapiens, UniProt Q9BXC1) (Q9BXC1 whole entry): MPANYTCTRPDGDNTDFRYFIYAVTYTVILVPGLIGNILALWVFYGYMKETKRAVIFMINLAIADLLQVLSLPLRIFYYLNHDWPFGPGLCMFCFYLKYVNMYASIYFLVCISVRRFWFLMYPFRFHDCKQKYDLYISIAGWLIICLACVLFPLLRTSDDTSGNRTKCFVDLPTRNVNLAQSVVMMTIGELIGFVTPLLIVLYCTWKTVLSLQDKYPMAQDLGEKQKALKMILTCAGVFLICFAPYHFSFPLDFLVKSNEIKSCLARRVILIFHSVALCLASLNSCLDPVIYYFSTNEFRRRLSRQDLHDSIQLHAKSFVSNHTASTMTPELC

Compound	Fold of Basal RLU [1]	agonist activity at GPR55, GPR18, GPR119 [2]	off-target functional activity [2]	Fold of Basal RLU [3]	Fold of Basal RLU [4]	Fold of Basal RLU [5]	Fold of Basal RLU [6]	Fold of Basal RLU [7]	Fold of Basal RLU [8]	Fold of Basal RLU [9]	Fold of Basal RLU [10]	Fold of Basal RLU [11]	Fold of Basal RLU [12]	Fold of Basal RLU [13]	Fold of Basal RLU [14]	Fold of Basal RLU [15]	Fold of Basal RLU [16]	Fold of Basal RLU [17]	Fold of Basal RLU [18]	Fold of Basal RLU [19]	also measured
COC(=O)[C@@](C)(NC(=O)c1cc(C)n(-c2cccc(C(F)(F)F)c2)n1)c1cccs1 [‘1350]	1.3 and 1.1 and 1 and 0.9	no agonist activity	little activity was seen	1.2 fold and 1 fold and 0.8 fold	1 and 0.7 and 0.9	2.2 fold and 2.3 fold and 2.4 fold	1.3 and 1.4 and 1.8	0.9 fold and 1 fold and 1.2 fold and 1.3 fold	1 and 0.8 and 1.3	1.2 and 1.1 and 1 and 1.6	1.1 fold and 1 fold	1 fold and 0.8 fold and 1.4 fold	0.8 fold and 1 fold and 0.6 fold and 0.7 fold	0.4 and 0.7 and 0.6 and 0.5	1 fold and 1.1 fold and 1.4 fold and 1.6 fold	0.8 fold and 0.7 fold and 1 fold and 0.9 fold	0.9 fold and 1 fold and 0.8 fold and 0.7 fold	8.2 and 8.7 and 8.6	0.9 and 1.3 and 1	0.7 and 0.6	Fold of Basal RLU [20]: 0.7 and 0.8 and 1 and 0.9; Fold of Basal RLU [21]: 1.1 fold and 1 fold and 1.2 fold and 2 fold; Fold of Basal RLU [22]: 0.9 and 0.7 and 1.3 and 1; Fold of Basal RLU [23]: 2.3 fold and 1.9 fold; Fold of Basal RLU [24]: 0.8 fold and 1 fold; Fold of Basal RLU [25]: 1.4 fold and 1.2 fold and 1.5 fold; Fold of Basal RLU [26]: 1.1 fold and 0.9 fold and 0.8 fold; Fold of Basal RLU [27]: 0.8 and 1 and 0.6; Fold of Basal RLU [28]: 0.9 fold and 1.4 fold and 1 fold; Fold of Basal RLU [29]: 5.2 and 4.9 and 5.3; Fold of Basal RLU [30]: 1 fold and 1.2 fold and 0.7 fold and 0.8 fold; Fold of Basal RLU [31]: 1.2 fold and 1.7 fold and 1.6 fold and 2.1 fold; Fold of Basal RLU [32]: 1.4 fold and 1.8 fold and 1.6 fold; Fold of Basal RLU [33]: 0.9 fold and 1.2 fold and 1 fold; Fold of Basal RLU [34]: 1.2 fold and 1.1 fold and 1.3 fold; Fold of Basal RLU [35]: 0.7 fold and 0.8 fold; Fold of Basal RLU [36]: 1 and 1.5 and 1.9 and 1.1; Fold of Basal RLU [37]: 0.7 fold and 1.1 fold and 1 fold
Cc1cc(C(=O)NC(C)(c2ccco2)c2ccco2)nn1-c1cccc(C(F)(F)F)c1 [‘4936]	1.5 and 1.4 and 1.3 and 1	no agonist activity	except for ‘4936 against ADORA-1	0.8 fold and 0.9 fold and 0.6 fold	1 and 0.8 and 0.6	2.7 fold and 3.1 fold and 3.2 fold	1.5 and 1.7 and 1.4 and 2.3	0.9 fold and 1.2 fold and 1 fold	2.5 and 1.9 and 1.6 and 2.2	1.4 and 1.2 and 0.9 and 0.7	1.1 fold and 1.2 fold and 0.9 fold	1 fold and 1.2 fold and 1.5 fold and 1.3 fold	0.6 fold and 0.8 fold and 0.7 fold and 0.9 fold	1 and 0.7 and 0.8	1.3 fold and 1.5 fold and 1.7 fold and 1.8 fold	1.7 fold and 1.2 fold and 1.4 fold and 2.1 fold	1.2 fold and 0.7 fold and 1.1 fold	12.4 and 11.8 and 12 and 10.8	1 and 1.1 and 1.3	2 and 1.6 and 1.3 and 1.1	Fold of Basal RLU [20]: 0.8 and 0.9 and 1; Fold of Basal RLU [21]: 1.7 fold and 1.4 fold and 1.6 fold; Fold of Basal RLU [22]: 0.8 and 0.6 and 0.5 and 0.7; Fold of Basal RLU [23]: 1.3 fold and 1.4 fold and 1.1 fold and 1.8 fold; Fold of Basal RLU [24]: 1.2 fold and 0.9 fold; Fold of Basal RLU [25]: 2.1 fold and 1.6 fold and 1.2 fold and 1.1 fold; Fold of Basal RLU [26]: 0.9 fold and 0.8 fold and 0.6 fold; Fold of Basal RLU [27]: 0.9 and 1.2 and 1.1 and 1.7; Fold of Basal RLU [28]: 1 fold and 1.5 fold and 1.8 fold; Fold of Basal RLU [29]: 5.5 and 5.4 and 5.6; Fold of Basal RLU [30]: 1 fold and 0.7 fold and 0.8 fold and 1.1 fold; Fold of Basal RLU [31]: 6.4 fold and 5.8 fold and 6.3 fold and 7.4 fold; Fold of Basal RLU [32]: 1.3 fold and 2.2 fold and 1.6 fold; Fold of Basal RLU [33]: 0.8 fold and 1 fold; Fold of Basal RLU [34]: 1 fold and 1.3 fold and 1.2 fold; Fold of Basal RLU [35]: 1.1 fold and 1 fold; Fold of Basal RLU [36]: 0.9 and 0.7 and 1; Fold of Basal RLU [37]: 0.8 fold and 1.1 fold and 0.9 fold
